{
  "source": "paper PMC5969224",
  "about": "“Lysine‐241 Has a Role in Coupling 2OG Turnover with Substrate Oxidation During KDM4‐Catalysed Histone Demethylation” (Chembiochem, 2018)",
  "key": {"K241A KDM4A [1]": {"target": "T1, K241A KDM4A (Homo sapiens, UniProt O75164, K241A)", "T1 construct": "two recombinant variants of KDM4A (residues 1–359) in Escherichia coli BL21(DE3) cells; His6 (N); made in house; host or cells: Escherichia coli BL21(DE3)", "T1 sequence (O75164 1-359 K241A)": "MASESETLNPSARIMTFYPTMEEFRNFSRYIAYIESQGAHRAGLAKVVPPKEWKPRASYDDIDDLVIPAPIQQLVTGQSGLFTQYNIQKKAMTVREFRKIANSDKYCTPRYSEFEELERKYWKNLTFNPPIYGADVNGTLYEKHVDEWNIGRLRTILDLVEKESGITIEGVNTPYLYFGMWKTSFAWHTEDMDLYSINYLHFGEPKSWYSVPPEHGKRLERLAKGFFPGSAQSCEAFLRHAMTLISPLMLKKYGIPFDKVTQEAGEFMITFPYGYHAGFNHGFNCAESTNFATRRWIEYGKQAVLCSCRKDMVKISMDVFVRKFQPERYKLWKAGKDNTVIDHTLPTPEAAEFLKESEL", "test": "1H NMR substrate-uncoupled turnover of 2OG to succinate, K241A KDM4A", "assay_type": "biochemical", "quoted_text": "(§1) Samples containing either WT or K241A (20.5 μM), an excess of 2OG (2 mM), ascorbate (1 mM), and ferrous iron (100 μM) in ammonium formate buffer (50 mM, pH 7.5) were subjected to ^1H NMR analysis at 1.5 min intervals over a 30‐min reaction. […] Experiments were then conducted in the presence of a histone H3 eight‐residue fragment peptide containing N ^ϵ‐trimethyllysine at position 9 (H3K9me3, sequence: ARKme3STGGK).\n(§2) 1H NMR activity and inhibition assays: 20.5 µM KDM4A WT or KDM4A K241A was\n(§3) mixed with 2 mM 2OG, 1 mM sodium L-ascorbate, and 100 µM ferrous iron (source\n(§4) (NH4)2FeSO4.6H2O), in 50 mM ammonium formate buffer pH 7.5 10 % v/v D2O in an Ep-\n(§5) pendorf tube, before being immediately transferred to an NMR tube and subjected to 1H NMR\n(§6) analysis (700 MHz). For samples containing peptide substrate (sequence: ARKme3STGGK),\n(§7) the peptide concentration was 300 µM. For inhibition assays, samples contained 100 µM in-\n(§8) hibitor (JIB-04 or NOG) and the spectra were acquired after 35 min. Note: residual protein\n(§9) buffer was also present. NMR analyses were carried out on a Bruker AVIII 700 spectrometer\n(§10) equipped with an inverse TCI 1H/13C/15N cryoprobe and running TOPSPIN 3.2 software. The\n(§11) deuterium signal was used as an internal lock signal and 1H chemical shifts are reported in\n(§12) ppm relative to the solvent HDO resonance (δH 4.7 ppm)."}, "WT KDM4A [2]": {"target": "T2, WT KDM4A (Homo sapiens, UniProt O75164)", "T2 sequence (O75164 1-359)": "T1 sequence (O75164 1-359 K241A) with A241K", "settings": "ref 12b; cited from earlier work", "quoted_text": "Studies were then carried out to evaluate the ability of the two KDM4A proteins to catalyse the demethylation of a histone peptide substrate."}, "WT KDM4A [3]": {"target": "T2, WT KDM4A", "test": "1H NMR substrate-uncoupled turnover of 2OG to succinate, WT KDM4A", "assay_type": "biochemical", "set-up": "two recombinant variants of KDM4A (residues 1–359) in Escherichia coli BL21(DE3) cells; His6 (N); made in house; host or cells: Escherichia coli BL21(DE3)", "settings": "WT 20.5 μM, 2OG 2 mM, ascorbate 1 mM, Fe(II) 100 μM, 50 mM ammonium formate pH 7.5, no peptide; 1H NMR 700 MHz, 1.5 min intervals over 30 min", "quoted_text": "Samples containing either WT or K241A (20.5 μM), an excess of 2OG (2 mM), ascorbate (1 mM), and ferrous iron (100 μM) in ammonium formate buffer (50 mM, pH 7.5) were subjected to ^1H NMR analysis at 1.5 min intervals over a 30‐min reaction.\nas §2, §3, §4, §5, §9, §10, §11\nppm relative to the solvent HDO resonance (δH 4.7 ppm). The solvent signal was reduced by"}, "WT KDM4A [4]": {"target": "T2, WT KDM4A", "test": "1H NMR inhibition assay of uncoupled 2OG turnover, WT KDM4A", "assay_type": "biochemical", "set-up": "two recombinant variants of KDM4A (residues 1–359) in Escherichia coli BL21(DE3) cells; His6 (N); made in house; host or cells: Escherichia coli BL21(DE3)", "settings": "WT KDM4A 20.5 μM; inhibitor 100 μM; 2OG 2 mM; spectra after 35 min; pH 7.5", "quoted_text": "as §1, §2, §3, §4, §5, §6, §7, §8, §9, §10, §11, §12"}, "K241A KDM4A [5]": {"target": "T1, K241A KDM4A", "test": "1H CPMG NMR binding assay, K241A KDM4A", "settings": "for binding to K241A versus WT KDM4A: CPMG NMR, K241A compared with WT", "quoted_text": "as §1\n(§13) NMR analyses were carried out on a Bruker AVIII 700 spectrometer\nas §10, §11, §12\n(§14) 1H CPMG NMR binding assays: Typical experimental parameters for Carr-Purcell-Mei-\n(§15) boom-Gill (CPMG) NMR spectroscopy were as follows: total echo time, 40 ms; relaxation\n(§16) delay, 2 s; and number of transients, 264. The PROJECT-CPMG sequence was applied\n(§17) (90°x−[τ−180°y−τ−90°y−τ−180°y−τ]n−acq).[4] Water suppression was achieved by presatura-\n(§18) tion. Protein (KDM4A WT or KDM4A K241A) was titrated into an assay mixture of 40 µM"}, "WT KDM4A [6]": {"target": "T2, WT KDM4A", "test": "1H CPMG NMR binding assay, WT KDM4A", "set-up": "two recombinant variants of KDM4A (residues 1–359) in Escherichia coli BL21(DE3) cells; His6 (N); made in house; host or cells: Escherichia coli BL21(DE3)", "settings": "protein titrated into 40 µM JIB-04, 100 µM Fe(II), 50 mM ammonium formate pH 7.5, 10 % D2O, 600 MHz CPMG, quadratic fit, read-out: K D (JIB-04), provisional", "quoted_text": "as §1, §13, §10, §11, §12, §14, §15, §16, §17, §18"}, "K241A KDM4A [7]": {"target": "T1, K241A KDM4A", "settings": "mixed-mode inhibition of K241A; cited from earlier work", "description": "The overall MS, NMR spectroscopy and fluorescence polarisation studies imply that K241 has a role in KDM4A catalysis. […] Succinate formation by the K241A variant is stimulated by a histone fragment peptide, and a fluorescently labelled histone peptide bind ..."}, "K241A KDM4A [8]": {"target": "T1, K241A KDM4A", "test": "1H NMR inhibition assay of uncoupled 2OG turnover, K241A KDM4A", "assay_type": "biochemical", "settings": "K241A KDM4A 20.5 μM; inhibitor 100 μM; 2OG 2 mM; spectra after 35 min; pH 7.5", "quoted_text": "as §1, §2, §3, §4, §5, §6, §7, §8, §9, §10, §11, §12"}, "K241A KDM4A [9]": {"target": "T1, K241A KDM4A", "test": "1H NMR succinate formation in presence of H3 eight-residue peptide, K241A KDM4A", "assay_type": "biochemical", "settings": "K241A KDM4A 20.5 μM; peptide 300 µM; 2OG 2 mM; pH 7.5", "quoted_text": "as §1, §2, §3, §4, §5, §6, §7, §8, §9, §10, §11, §12"}, "WT KDM4A [10]": {"target": "T2, WT KDM4A", "test": "1H NMR succinate formation in presence of H3 eight-residue peptide, WT KDM4A", "assay_type": "biochemical", "set-up": "two recombinant variants of KDM4A (residues 1–359) in Escherichia coli BL21(DE3) cells; His6 (N); made in house; host or cells: Escherichia coli BL21(DE3)", "settings": "peptide 300 µM", "quoted_text": "as §1, §2, §3, §4, §5, §6, §7, §8, §9, §10, §11, §12"}, "K241A KDM4A [11]": {"target": "T1, K241A KDM4A", "test": "MALDI-TOF MS demethylation assay, K241A KDM4A", "assay_type": "biochemical", "settings": "K241A KDM4A 1 μM, peptide 100 μM, 2OG 100 μM, ascorbate 100 μM, Fe(II) 10 μM, 50 mM HEPES pH 7.5, 40 min, 37 °C", "quoted_text": "Initially, we produced two recombinant variants of KDM4A (residues 1–359) in Escherichia coli BL21(DE3) cells; a truncated wild‐type sequence (KDM4A WT), or a variant with an alanine in place of Lys241 (K241A KDM4A). Studies were then carried out to evaluate the ability of the two KDM4A proteins to catalyse the demethylation of a histone peptide substrate.\nMALDI-TOF MS activity assays: 1 µM WT KDM4A or KDM4A K241A was incubated\nwith 100 µM disodium 2-oxoglutarate (2OG), 100 µM sodium L-ascorbate, 10 µM ferrous iron\n(source (NH4)2FeSO4.6H2O) and 100 µM of 15-residue H3 fragment peptide containing the\nrequisite trimethyllysine mark (Table S1) in 50 mM HEPES buffer pH 7.5 for 40 min at 37 °C.\nAssays were quenched with an equal vol-\nume of methanol, and the extent of the reaction determined using MALDI-TOF mass spec-\ntrometry (MS). Data were analysed using MASSLYNX 4.0 (Waters)."}},
  "note": "Positions count from the first letter of the chain named. “Also recorded” adds a separate entry of the source. Square brackets hold non-standard residues; d marks the D form. Ends that are not written are not given here. Lys(Me3) = C[N+](C)(C)CCCC[C@H](N)C(=O)O",
  "data": [
    {"compound": "O=C(O)CCC(=O)C(=O)O", "note": "[2OG, 2‐oxoglutarate]", "values": [
      {"measurement": "initial succinate formation rate", "setting": "K241A KDM4A [1]; K241A 20.5 μM, 2OG 2 mM, ascorbate 1 mM, Fe(II) 100 μM, 50 mM ammonium formate pH 7.5, no peptide, 1H NMR 700 MHz, 1.5 min intervals over 30 min", "value": 1.55, "unit": "µM/min"},
      {"measurement": "succinate formation rates, WT versus K241A", "setting": "K241A KDM4A [1]; in the absence of peptide, WT and K241A KDM4A compared", "value": "near identical"},
      {"measurement": "K M (2OG)", "setting": "WT KDM4A [2]", "value": "26 ± 7", "unit": "µM"},
      {"measurement": "initial succinate formation rate", "setting": "WT KDM4A [3]", "value": 1.35, "unit": "µM/min"}
    ]},
    {"compound": "Clc1ccc(N/N=C(\\c2ccccc2)c2ccccn2)nc1", "note": "[JIB‐04]", "values": [
      {"measurement": "inhibition of uncoupled 2OG turnover", "setting": "WT KDM4A [4]", "value": "inhibition was more pronounced"},
      {"measurement": "binding to K241A versus WT KDM4A", "setting": "K241A KDM4A [5]", "value": "preferential binding of JIB‐04 to the K241A variant over the WT enzyme; also recorded: binding to K241A appears stronger"},
      {"measurement": "binding to K241A versus WT KDM4A", "setting": "K241A KDM4A [5]; listed as JIB-04", "value": "Binding appears stronger to the K241 variant than KDM4A WT"},
      {"measurement": "Kd", "setting": "K241A KDM4A [5]; K241A KDM4A, protein titrated into 40 µM JIB-04, 100 µM Fe(II), 50 mM ammonium formate pH 7.5, 10 % D2O, 600 MHz CPMG, quadratic fit, read-out: K D (JIB-04), provisional", "value": "7 ± 2", "unit": "µM"},
      {"measurement": "Kd", "setting": "WT KDM4A [6]", "value": "22 ± 5", "unit": "µM"},
      {"measurement": "mode of inhibition", "setting": "K241A KDM4A [7]", "value": "mixed‐mode inhibition"},
      {"measurement": "inhibition of uncoupled 2OG turnover", "setting": "K241A KDM4A [8]", "value": "inhibition was more pronounced"}
    ]},
    {"compound": "O=C(O)CNC(=O)C(=O)O", "note": "[N‐oxalylglycine]", "values": [
      {"measurement": "inhibition of uncoupled 2OG turnover", "setting": "WT KDM4A [4]", "value": "inhibited"},
      {"measurement": "inhibition of uncoupled 2OG turnover", "setting": "K241A KDM4A [8]", "value": "inhibited"}
    ]},
    {"compound": "AR[Lys(Me3)]STGGK [histone H3 eight‐residue fragment peptide containing N ϵ‐trimethyllysine at position 9 (also called H3K9me3)]", "values": [
      {"measurement": "effect of peptide on succinate formation rate", "setting": "K241A KDM4A [9]", "value": "markedly increased"},
      {"measurement": "effect of peptide on succinate formation rate", "setting": "WT KDM4A [10]; WT KDM4A 20.5 μM, 2OG 2 mM, pH 7.5", "value": "markedly increased"},
      {"measurement": "stimulation of succinate formation, WT versus K241A", "setting": "WT KDM4A [10]; WT compared with K241A", "value": "Stimulation of succinate formation was greater for WT than for K241A KDM4A; also recorded: Succinate formation is stimulated by H3K9me3 peptide, but more readily with WT KDM4A"}
    ]},
    {"compound": "TPVKKKAR[Lys(Me3)]SAGAAK [H1.4K26 peptide]", "values": [
      {"measurement": "demethylation of histone peptide", "setting": "K241A KDM4A [11]", "value": "low‐level demethylation"}
    ]}
  ]
}
